Series [1] has as its target T1, Signal transducer and activator of transcription 3 (Homo sapiens, UniProt P40763). The experiment in a line: Inhibition of STAT3 in human GES1cells assessed as downregulation of Cyclin D1 expression at 10 to 40 nM incubated for 24 hrs by RT-PCR analysis. It is filed as cell-based. As to conditions: GES1, dose 10-40 nM.
The target of series [2] is Cytochrome P450 2C19 (Homo sapiens, UniProt P33261). The experiment in a line: Inhibition of CYP2C19 in human liver microsome. It is filed as ADME, microsomes. (Liver microsomes are a subcellular fraction often used to study metabolism.)
Series [3] deals with T1, Signal transducer and activator of transcription 3. The experiment in a line: Inhibition of STAT3 in human MKN-45 cells assessed as downregulation of Bcl2 expression at 10 to 40 nM incubated for 24 hrs by RT-PCR analysis. In kind it is cell-based. As to conditions: dose 10-40 nM.
Series [4] has the same target. Nature of the series: Inhibition of IL-6 induced STAT3 phosphorylation at Tyr705 residue in human MGC-803 cells at 40 nM preincubated for 24 hrs followed by IL-6 stimulation and measured after 30 min by Western blotting analysis. It is filed as cell-based. As to conditions: time 24.5 hrs. (A western blot detects proteins with antibodies after separation by electrophoresis.)

Series [5] has the same target. The experiment in a line: Inhibition of STAT3 phosphorylation at Ser727 residue in human AGS cells incubated upto 24 hrs by Western blotting analysis. In kind it is cell-based. The following applies: dose <= 40.0 nM, DDE = dose-dependent effect.
Series [6] is described as follows: Elimination half life in ICR mouse plasma at 1 mg/kg, iv measured up to 24 hrs by LC-MS/MS analysis. The following applies: read-out: beta t1/2 (converted). In kind it is ADME, organism-based.
Series [7] deals with Tyrosine-protein kinase JAK2 (Homo sapiens, UniProt O60674). Nature of the series: Inhibition of JAK2 (unknown origin).

Active and inactive are the calls of the source. The calls are words filed in the database; no cut-off is given here.

As usually defined, the IC50 is the concentration needed to halve the response being measured. A lower IC50 goes with inhibition by little substance.

T1 sequence (P40763 whole entry): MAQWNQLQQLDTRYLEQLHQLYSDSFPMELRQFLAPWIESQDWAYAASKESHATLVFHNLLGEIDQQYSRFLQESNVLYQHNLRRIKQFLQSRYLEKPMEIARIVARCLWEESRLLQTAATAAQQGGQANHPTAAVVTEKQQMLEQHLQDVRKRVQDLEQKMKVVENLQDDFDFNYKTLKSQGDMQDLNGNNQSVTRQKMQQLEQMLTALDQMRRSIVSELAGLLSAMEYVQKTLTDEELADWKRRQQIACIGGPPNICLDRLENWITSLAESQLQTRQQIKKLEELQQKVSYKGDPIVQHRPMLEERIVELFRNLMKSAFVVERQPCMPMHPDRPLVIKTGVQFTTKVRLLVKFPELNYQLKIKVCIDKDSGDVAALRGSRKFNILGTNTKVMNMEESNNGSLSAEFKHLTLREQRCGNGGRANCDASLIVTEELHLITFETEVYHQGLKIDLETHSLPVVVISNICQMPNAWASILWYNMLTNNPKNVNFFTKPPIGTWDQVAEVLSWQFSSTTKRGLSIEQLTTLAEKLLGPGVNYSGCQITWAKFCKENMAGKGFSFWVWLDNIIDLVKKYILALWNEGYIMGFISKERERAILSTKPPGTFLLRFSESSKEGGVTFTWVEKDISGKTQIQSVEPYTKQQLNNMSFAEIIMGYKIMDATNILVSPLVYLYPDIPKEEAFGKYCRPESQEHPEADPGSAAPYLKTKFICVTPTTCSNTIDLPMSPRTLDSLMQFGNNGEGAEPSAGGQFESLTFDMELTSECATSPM
Chain of Tyrosine-protein kinase JAK2 (O60674 whole entry): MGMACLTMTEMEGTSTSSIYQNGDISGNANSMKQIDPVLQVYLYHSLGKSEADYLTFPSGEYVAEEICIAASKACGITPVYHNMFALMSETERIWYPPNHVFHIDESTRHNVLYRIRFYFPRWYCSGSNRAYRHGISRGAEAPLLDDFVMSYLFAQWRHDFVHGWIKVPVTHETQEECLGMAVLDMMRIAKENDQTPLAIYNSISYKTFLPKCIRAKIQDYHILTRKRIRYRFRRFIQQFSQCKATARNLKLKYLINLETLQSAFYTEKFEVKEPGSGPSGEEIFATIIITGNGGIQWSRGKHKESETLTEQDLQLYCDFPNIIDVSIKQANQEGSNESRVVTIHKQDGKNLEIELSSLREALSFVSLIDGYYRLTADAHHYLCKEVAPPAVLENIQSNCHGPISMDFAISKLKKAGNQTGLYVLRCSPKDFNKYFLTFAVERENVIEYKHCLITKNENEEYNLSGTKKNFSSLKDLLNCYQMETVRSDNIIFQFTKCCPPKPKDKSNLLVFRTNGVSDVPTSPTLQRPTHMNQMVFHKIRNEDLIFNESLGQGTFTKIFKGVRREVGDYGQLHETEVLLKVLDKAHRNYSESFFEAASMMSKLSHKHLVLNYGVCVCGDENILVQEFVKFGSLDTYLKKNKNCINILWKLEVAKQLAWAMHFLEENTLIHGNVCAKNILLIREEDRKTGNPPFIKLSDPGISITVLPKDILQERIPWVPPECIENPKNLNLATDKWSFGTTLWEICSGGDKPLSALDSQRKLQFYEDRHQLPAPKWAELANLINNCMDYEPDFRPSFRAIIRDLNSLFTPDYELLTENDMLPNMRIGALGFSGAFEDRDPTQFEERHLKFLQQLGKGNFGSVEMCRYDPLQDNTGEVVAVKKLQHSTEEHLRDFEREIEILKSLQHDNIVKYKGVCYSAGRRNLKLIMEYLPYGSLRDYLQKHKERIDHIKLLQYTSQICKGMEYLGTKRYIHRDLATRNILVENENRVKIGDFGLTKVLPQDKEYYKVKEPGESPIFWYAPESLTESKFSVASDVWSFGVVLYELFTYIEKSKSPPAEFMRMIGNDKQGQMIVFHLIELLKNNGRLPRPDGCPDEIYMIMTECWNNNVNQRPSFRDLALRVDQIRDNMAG
Chain of Cytochrome P450 2C19 (P33261 whole entry): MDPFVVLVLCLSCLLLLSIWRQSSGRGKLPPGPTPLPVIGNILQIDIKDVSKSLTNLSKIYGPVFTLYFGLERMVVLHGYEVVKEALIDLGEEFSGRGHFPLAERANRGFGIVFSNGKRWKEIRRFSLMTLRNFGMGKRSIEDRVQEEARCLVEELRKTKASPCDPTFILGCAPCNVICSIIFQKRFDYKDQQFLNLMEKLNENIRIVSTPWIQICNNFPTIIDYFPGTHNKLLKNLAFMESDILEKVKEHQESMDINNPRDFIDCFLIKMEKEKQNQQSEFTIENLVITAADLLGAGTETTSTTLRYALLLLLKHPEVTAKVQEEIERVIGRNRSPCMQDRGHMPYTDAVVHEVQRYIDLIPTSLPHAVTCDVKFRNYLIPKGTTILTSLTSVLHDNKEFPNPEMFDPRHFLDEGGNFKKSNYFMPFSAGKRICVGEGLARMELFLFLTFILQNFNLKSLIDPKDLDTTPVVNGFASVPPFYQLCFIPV

Consider `O=C(c1ccc(-c2noc(-c3ccc(C(F)(F)F)cc3)n2)cc1)N1CCN(Cc2ccc(OCC(F)(F)F)cc2)CC1`, for which the inhibition result in series [1], in series [3] and in series [4] was “Active” in each case. Moreover, the IC50 in series [2] is 15.9 µM; in series [7], over 10 µM. Moreover, in series [5], the inhibition result was “Dde”. The half-life in series [6] was 9.06 h.

The record behind these values is ChEMBL document CHEMBL5108044, “Discovery of a Novel Potent STAT3 Inhibitor HP590 with Dual p-Tyr705/Ser727 Inhibitory Activity for Gastric Cancer Treatment” (J Med Chem, 2022).
